Source: ChEMBL document CHEMBL4346692, “Anti-PqsR compounds as next-generation antibacterial agents against Pseudomonas aeruginosa: A review” (Eur J Med Chem, 2019)

Experiments:
[1] = Agonist activity at Pseudomonas aeruginosa pqsA delta frame deletion mutant
[2] = target: T1, Transcriptional regulator MvfR (Pseudomonas aeruginosa PA14) (UniProt A0A072ZLE6); test: Inhibition of Pseudomonas aeruginosa PqsR relative to control; conditions: concentration not given here
T1 sequence (whole entry): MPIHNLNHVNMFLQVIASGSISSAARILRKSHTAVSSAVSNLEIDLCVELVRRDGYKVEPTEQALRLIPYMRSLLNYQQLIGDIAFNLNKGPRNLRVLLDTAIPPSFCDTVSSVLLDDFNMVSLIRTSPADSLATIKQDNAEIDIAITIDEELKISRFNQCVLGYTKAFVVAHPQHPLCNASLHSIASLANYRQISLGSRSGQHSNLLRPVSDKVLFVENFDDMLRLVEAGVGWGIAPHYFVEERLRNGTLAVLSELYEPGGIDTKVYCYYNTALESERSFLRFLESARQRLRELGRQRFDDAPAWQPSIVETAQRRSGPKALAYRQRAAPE

[3] = target: T2, 2-heptyl-4(1H)-quinolone synthase PqsD (Pseudomonas aeruginosa, UniProt A0A0C7ACN7); test: Inhibition of Pseudomonas aeruginosa PqsD
T2 sequence (A0A0C7ACN7 whole entry): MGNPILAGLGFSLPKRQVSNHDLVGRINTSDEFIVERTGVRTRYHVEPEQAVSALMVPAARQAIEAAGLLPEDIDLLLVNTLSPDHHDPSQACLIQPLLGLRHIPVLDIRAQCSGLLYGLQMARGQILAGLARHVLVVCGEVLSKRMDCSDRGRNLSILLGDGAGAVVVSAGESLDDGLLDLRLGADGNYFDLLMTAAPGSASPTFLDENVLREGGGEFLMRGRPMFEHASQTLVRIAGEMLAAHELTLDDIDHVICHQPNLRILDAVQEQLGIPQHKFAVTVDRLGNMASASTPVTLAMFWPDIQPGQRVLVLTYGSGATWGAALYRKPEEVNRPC

[4] = target: T3, Transcriptional regulator MvfR (Pseudomonas aeruginosa PA14, UniProt A0A072ZLE6); test: Inhibition of Pseudomonas aeruginosa PqsR
T3 sequence (A0A072ZLE6 whole entry): T1 sequence (whole entry)

[5] = target: T3, Transcriptional regulator MvfR; test: Antagonist activity at His6 -tagged Pseudomonas aeruginosa PqsR CBD domain expressed in Escherichia coli Rosetta 2 (DE3)
[6] = Binding affinity to Pseudomonas aeruginosa His6/Sumo-tagged PqsR C87 mutant expressed in Escherichia coli BL21 (DE3) […] cells by surface plasma resonance method
[7] = Antagonist activity at His6 -tagged Pseudomonas aeruginosa PqsR C87 mutant expressed in Escherichia coli BL21 (DE3) cells by surface plasma resonance method
[8] = Half life in human hepatic microsomes at 1 uM in presence of NADPH by UPLC-MS/MS analysis; format: ADME, Microsome; conditions: liver microsomes
[9] = Half life in rat hepatic microsomes at 1 uM in presence of NADPH by UPLC-MS/MS analysis; format: ADME, Microsome; conditions: liver microsomes

## CCCCCCCc1[nH]c2ccccc2c(=O)c1O
[1]
  EC50: 1.9 µM

## CCCCCCS(=O)(=O)c1nccc(-n2ccnn2)n1
[2]
  inhibition: 47%
[3]
  IC50: 1.7 µM
[4]
  IC50: 50 µM

## CCCCCCCCCc1nc2cc(F)ccc2c(=O)n1N
[5]
  IC50: 3.9 µM

## CCCCCCCc1cc(=O)c2cc(C(F)(F)F)ccc2[nH]1
[6]
  Kd: 0.057 µM

## CC(C)(C)c1ccc(C(=O)NO)cc1
[7]
  IC50: 23.6 µM

## CCCCCCCCCc1nc2cc(Cl)ccc2c(=O)n1N
[5]
  IC50: 5 µM

## CCCCCCCCCc1nc2cc(F)ccc2c(=O)n1OC
[1]
  EC50: 2.2 µM

## CS(=O)(=O)c1nccc(-n2cnnn2)n1
[3]
  IC50: 21 µM
[4]
  IC50: 15 µM

## CCCCCCCCCc1nc2cc(F)c(F)cc2c(=O)n1N
[5]
  IC50: 1.2 µM

## O=CN1N=C(c2ccccc2)CC1c1cccc(Nc2ccnc3cc(Cl)ccc23)c1 (centres undefined)
[8]
  half-life at 1 µM: < 30 min
[9]
  half-life at 1 µM: < 30 min
